The results in this text go back to ChEMBL document CHEMBL2311398 (J Med Chem, 2013).

The target in assay [1] is T1, Motilin receptor (Homo sapiens, UniProt O43193). The assay can be described thus: Antagonist activity at MLNR (unknown origin).
The target in assay [2] is Growth hormone secretagogue receptor type 1 (Homo sapiens, UniProt Q92847). The experiment in a line: Agonist activity at GHSR (unknown origin).
For assay [3], the target named is T1, Motilin receptor. The assay can be described thus: Agonist activity at MLNR (unknown origin).

Molecules are shown by their SMILES.

T1 sequence (O43193 whole entry): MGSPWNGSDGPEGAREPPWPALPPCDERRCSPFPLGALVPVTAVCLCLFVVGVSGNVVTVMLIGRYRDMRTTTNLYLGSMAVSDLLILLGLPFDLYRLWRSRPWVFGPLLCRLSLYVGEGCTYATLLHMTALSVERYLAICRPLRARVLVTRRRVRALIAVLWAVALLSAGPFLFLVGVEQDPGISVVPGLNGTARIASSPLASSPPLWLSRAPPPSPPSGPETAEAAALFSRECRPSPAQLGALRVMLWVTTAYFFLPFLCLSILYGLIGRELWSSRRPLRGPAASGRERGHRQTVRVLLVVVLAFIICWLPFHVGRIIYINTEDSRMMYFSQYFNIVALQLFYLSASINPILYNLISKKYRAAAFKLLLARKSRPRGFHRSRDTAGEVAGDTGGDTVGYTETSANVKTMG
Chain of Growth hormone secretagogue receptor type 1 (Q92847 whole entry): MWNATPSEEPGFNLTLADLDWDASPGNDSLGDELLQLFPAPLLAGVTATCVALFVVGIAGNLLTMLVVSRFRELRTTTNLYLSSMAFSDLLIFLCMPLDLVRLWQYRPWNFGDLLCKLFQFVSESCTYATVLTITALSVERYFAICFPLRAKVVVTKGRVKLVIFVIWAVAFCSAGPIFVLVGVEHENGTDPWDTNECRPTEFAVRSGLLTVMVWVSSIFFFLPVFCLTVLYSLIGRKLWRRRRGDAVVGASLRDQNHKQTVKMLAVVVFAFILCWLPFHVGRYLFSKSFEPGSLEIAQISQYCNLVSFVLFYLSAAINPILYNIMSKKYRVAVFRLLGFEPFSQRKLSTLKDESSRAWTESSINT

One may read the IC50 as the concentration at which inhibition is half-maximal. A high value points to a need for much substance. As for `C[C@@H]1CN(Cc2ccc(-c3cccnc3C(=O)N3CCC(Nc4ccc(F)cc4)CC3)cc2)C[C@H](C)N1`, in assay [1], inhibition was half-maximal at 3.98 nM (IC50). By EC50 is commonly meant the concentration needed to bring the measured effect to its halfway point. A high value points to weaker potency. As for `COc1cccc(CCN(Cc2ccccc2-c2ccc(CN3C[C@@H](C)N[C@@H](C)C3)cc2)C(=O)NC2CCCCC2)c1`, in assay [2], the EC50 was 126 nM. In assay [1], `CC[C@H]1OC(=O)[C@H](C)[C@@H](O[C@H]2C[C@@](C)(OC)[C@@H](O)[C@H](C)O2)[C@H](C)[C@@H](O[C@@H]2O[C@H](C)C[C@H](N(C)C(C)C)[C@H]2O)[C@]2(C)CC(C)=C(O2)[C@H](C)C(=O)[C@]1(C)OC` gave an IC50 of 3.98 nM.

What is called Ki is a measure of affinity in units of concentration, obtained from inhibition or displacement. A higher Ki goes with a looser hold on the target. In turn, `CCNC(=O)[C@H](Cc1ccc(O)c(C(C)(C)C)c1)C(N)C(=O)[C@H](C(C)C)N(C)C(=O)[C@H](Cc1ccc(F)cc1)NC` (some centres undefined) showed a Ki in assay [3] of 2.63 nM. This lies in the single-digit nanomolar range.
